Measured values taken from US5880258A (dated 1999).
Entries after “also recorded” stand apart in the source; their conditions may differ. Values belong to the molecule of their own block, whether it stands above or below them. *1 amine or outer side, *2 acyl side, *3 side chain or, on linkers, in order; H or OH if unused. Where a SMILES comes first, the peptide text is derived from it. Where no end group is shown, it is not given here. [ ]: non-standard residue; d: D form. sY = N[C@@H](Cc1ccc(OS(=O)(=O)O)cc1)C(=O)O; Suc = O=C(CCC(=O)[*:2])[*:1]

How the values were obtained:
[1] = system: α-chymotrypsin; experiment: α-chymotrypsin in 0.1M sodium-phoshate buffer (pH7.0); conditions: 37° C., up to 24 hours
[2] = target: T1, thrombin (Homo sapiens, UniProt P00734); experiment: Inhibitory action against thrombin induced death; assay type: in vivo, mice; conditions: score 0 normal, 1 loss of roll over reflection, 2 death within 20 minutes
Description: To male mice (20-25 g), in non-anaesthesia, thrombin (15 NIH units/10 g) was administered intravenously, and the anti-thrombin activity of the tested compound was evaluated by observing the disappearance of roll over reflection and death as indexes. All the tested compounds were dissolved in saline and 0.05 ml/10 g were administered intravenously 5 min prior to the thrombin injection.

[3] = Prolongation of bleeding time (tail vein puncture wound); assay type: in vivo; conditions: wound 5 minutes after administration, male mice
Description: Samples were injected into male mice (20-25 g) via their tail vein under anaesthesia using pentobarbital (40 mg/kg i.p.). A puncture wound was made by inserting a 21G needle (outer diameter 0.85 mm) into the other side of the tail vein 5 minutes after administration of test compounds, and the bleeding time of the wound was measured.
A filter paper was put on the wound with changes every 15 seconds. Bleeding time is defined as the time required until no red spot is observed on the filter paper.

[4] = target: T1, thrombin; experiment: anti-thrombin activity; clotting assay (coagulation time with fibrinogen as substrate); assay type: biochemical; set-up: 100 μl of human-thrombin prepared at 10 NIH units/ml in aforesaid buffer
Description: Measurement of anti-thrombin activity was done by looking at anti-coagulant activity as an index using fibrinogen as the substrate. That is, the compounds were dossolved in 200 μl of 0.1 mM Tris-HCl buffer (pH7.5) containing 0.1% polyethyleneglycol-6000, 100 μl of human-thrombin prepared at 10 NIH units/ml in aforesaid buffer, were added 200 μl of human-fibrinogen (Sigma) prepared at 6 mg/ml in aforesaid tris-hydrochloride buffer were added, and the coagulation time of the reaction mixtures were measured. For measuring of coagulation times, coagulation time analyzer (Amelung KC10A) was used. Obtained values were converted into units by using a previously prepared thrombin standard curve. Graphs were prepared by plotting the converted values on the vertical axis, and the concentrations of the compounds on the horizontal axis. In the graphs, the thrombin unit was defined as 100 at a compound concentration of 0. The concentration of compounds corresponding to 50 units were defined as 50% inhibitory concentrations of compounds.

[5] = system: V8 protease (product of Sigma); experiment: V8 protease in 0.1M sodium-phoshate buffer (pH7.0); conditions: 37° C., up to 1 hour
[6] = system: carboxypeptidase Y (product of Boehringer Mannheim); experiment: carboxypeptidase Y in 0.1M sodium-phoshate buffer (pH7.0); conditions: 37° C., up to 30 min.

cleaved bond [1]: Tyr-Tyr
Molecule: GDFEEIPYYYLQ

Molecule: CC[C@H](C)[C@H](NC(=O)[C@@H]1CCCN1C(=O)[C@H](CCC(=O)O)NC(=O)[C@H](Cc1ccccc1)NC(=O)[C@H](CC(=O)O)NC(=O)CNC(=O)CCC(=O)O)C(=O)N1CCC[C@H]1C(=O)N[C@@H](CCC(=O)O)C(=O)N[C@@H](Cc1ccc(OS(=O)(=O)O)cc1)C(=O)N[C@@H](Cc1ccc(OS(=O)(=O)O)cc1)C(=O)N[C@@H](CC(C)C)C(=O)N[C@@H](CCC(N)=O)C(=O)O [Sulfated form of (C), Suc--Gly--Asp--Phe--Glu--Pro--Ile--Pro--Glu--Tyr(SO3 H)--Tyr(SO3 H)--Leu--Gln--OH] (Suc-GDFEPIPE[sY][sY]LQ-OH)
Score ([2]; 20 mg/kg i.v. 5 min before thrombin 15 NIH units/10 g): 1.2
Score ([2]; 50 mg/kg i.v. 5 min before thrombin 15 NIH units/10 g): 0.8
Score ([2]; 100 mg/kg i.v. 5 min before thrombin 15 NIH units/10 g): 0.6
Bleeding time ([3]; 10 mg/kg via tail vein): 277.5 ± 31.5 s
Bleeding time ([3]; 20 mg/kg via tail vein): 366.0 ± 23.0 s
Bleeding time ([3]; 50 mg/kg via tail vein): 432.0 ± 33.3 s
Potency ([4]; calculated using the definition that HV-1 (54-65) potency is 1): 88.94
IC50 ([4]; concentration corresponding to 50 thrombin units, human-thrombin 10 NIH units/ml, human-fibrinogen 6 mg/ml, read-out: 50% Inhibition Concentration (converted)): 42.9 nM

cleaved bond [5]: Glu-Tyr
cleaved bond [6]: Leu-Gln; also recorded: Tyr(SO3 H)-Leu
not cleaved [6]: no Tyr was released (30 min.)
Molecule: Gly--Asp--Phe--Glu--Glu--Ile--Pro--Glu--Tyr--Tyr(SO3 H)--Leu--Gln
